Results reported in patent US10336792B2, “Antimicrobial peptide dendrimers” (priority 2014, dated 2019).

Tests used:
[1] = 5(6)-Carboxyfluorescein leakage from lipid vesicles; conditions: 10 mM TRIS, 107 mM NaCl, pH 7.4; peptide added at 50 s
Procedure: Preparation A thin lipid film was prepared by evaporating a solution of 25 mg Egg PC or Egg PG in 1 mL MeOH/CHCl3 1/1 on a rotary evaporator (rt) and then in vacuo overnight. The resulting film was hydrated with 1 mL buffer (50 mM CF, 10 mM TIRS, 10 mM NaCl, pH 7.4) for 30 min, subjected to freeze-thaw cycles (7×) and extrusion (15×) through a polycarbonate membrane (pore size 100 nm). Extravesicular components were removed by gel filtration (Sephadex G-50) with 10 mM TRIS, 107 mM NaCl, pH 7.4. Final conditions: ˜2.5 mM Egg PC or Egg PG; inside: 50 mM CF, 10 mM TIRS, 10 mM NaCl, pH 7.4; outside: 10 mM TRIS, 107 mM NaCl, pH 7.4.
Experiment Egg PC or Egg PG stock solutions (37.5 μL) were diluted with a buffer (10 mM TRIS, 107 mM NaCl, pH 7.4) and placed in a thermostated fluorescence cuvette (25° C.) and gently stirred (total volume in the cuvette ˜3000 μL; final lipid concentration ˜31.25 μM). CF efflux was monitored at λem 517 nm (λex 492 nm) as a function of time after addition of 20 μL of peptide dendrimer in buffer (10 mM TRIS, 107 mM NaCl, pH 7.4) with final concentrations of 1, 5, 7.5, 10, 15, 20, 25, 30 μg/mL at t=50 s and 1.2% trition X-100 (30 μL, 0.012% final concentration) at t=300 s. Fluorescence intensities were normalized to fractional emission intensity I(t) using I(t)=(It−I0)/(I∞−I0) where I0 It at peptide dendrimer addition, I∞=It at saturation of lysis.
Bacterial membranes contain relatively large amounts of exposed anionic lipids, while the outer leaflet of the membranes of plants and animals is composed mainly of lipids with no net charge. The charge composition of such membranes can be mimicked with phospholipid vesicles. Large unilamellar vesicles (LUVs) composed of the neutral phospholipid with PC (phosphatidyl choline) or with PG (phosphatidyl glycerol) with negative charges were prepared encapsulating 5(6)-carboxyfluorescein (CF). […] The higher the concentration of MSt-112 the higher is the CF leakage (FIG. 6A). […] Overall the active AMPDs interact with the negatively charged membrane and release the CF.

[2] = system: P. aeruginosa PT1482 (A-), PT1485 (A-B-), PT1149 (A-B-C-algC), PT331 (Z61) (LPS mutants); type: cell-based, Pseudomonas aeruginosa; conditions: MH medium, 12-18 h
P. aeruginosa PA01 (WT) = type: cell-based, Pseudomonas aeruginosa
PAO1 = type: cell-based, Pseudomonas aeruginosa; conditions: PAO1, MH medium + 30% human serum
[3] = system: Pseudomonas aeruginosa (strain PA01); type: cell-based; conditions: 25 μg/mL; 0, 1, 3, 6, 8, 24 h
Procedure: Cell viability was assayed against Pseudomonas aeruginosa (strain PA01). A colony of bacteria was grown in LB-medium overnight at 37° C. The concentration was quantified by measuring absorbance at 600 nm and diluted to OD600=0.1 (1×10^8 CFU/mL). The samples were prepared as stock solutions of 1 mg mL^−1 in H2O and diluted in LB to a concentration of 50 μg/mL in a 96-well microtiterplate (TPP, untreated). The sample solutions (50 μL) were mixed with the diluted bacterial suspension with an OD600 nm of 0.001 (50 μL). […] The plates were incubated at 37° C. for 1, 3, 6, 8 and 24 h. Each time point was assayed on a separate plate. For each test, two columns of the plate were kept for sterility control (SC, broth only) and growth control (GC, broth with bacterial inoculums, no antibiotics). After incubation 15 μL of WST-8 working solution (3.31 mg/mL WST-8 (Ochem Incorporation), 0.074 mg/mL PES (phenazine ethosulfate)) was added to each well and cells were incubated at 37° C. until GC had desired value. After the reaction took place, the final absorbance was read at 450 nm. For calculations, the value of the GC was set to 100% cell viability and the value of the negative control (no bacteria, SC) was set to 0% cell viability. […]
In order to determine the killing kinetics of AMPDs the amount of living bacteria was measured as a function of time after incubation with the AMPDs. […]

In the case of Polymyxin B [reference compound], the “CF leakage from phosphatidylglycerol LUVs” value [1] is reported as “immediate leakage of CF”, the “MIC PT1482 (A-)” value [2] is reported as 1 µg/mL and the “MIC PT1485 (AB-)” value [2] is reported as less than 1 µg/mL. For the same substance, the “MIC PAO1” value (P. aeruginosa PA01 (WT); MH medium, 12-18 h, two independent experiments in triplicate (Table 25)) was 1 µg/mL, the “MIC (MH)” value (P. aeruginosa PA01 (WT); PAO1, MH medium (Table 24)) was 2 µg/mL and the “MIC (MH + 30% human serum)” value (PAO1) was 4 µg/mL. For the same substance, the “killing kinetics (bacterial survival over 24 hours)” value [3] was “kill P. aeruginosa immediately”.
